The text below walks through data of patent US5567738A, “Use of 2-(4-(4-chlorophenyl)cyclohexyl)-3-hydroxy-1,4-Naphthoquinone for the treatment of cancer” (Glaxo Wellcome Inc., priority 1992, dated 1996).

Common to all, as to assay type: cell-based
Assay [1] concerns carcinoma, adenocarcinoma and fibrosarcoma cells. Briefly: Activity against tumour cells (general statement).
The test system of assay [2] is HCT-116 (Human colon carcinoma). Briefly: Proliferative assay against tumour cell line HCT-116 in vitro. To be noted: read-out: Activity (% Growth Inhibition). Here is the method:
(§1) Activity Against Tumour Cell Lines In Vitro The activity of the test compound was evaluated using proliferative assays against a number of different turnout cell lines in vitro.

Assay [3] relates to WiDr (Human colon adenocarcinoma). Nature of the assay: Proliferative assay against tumour cell line WiDr in vitro. Particulars: read-out: Activity (% Growth Inhibition). Here is the method: as §1
Assay [4] concerns P3888D1 (Mouse Leukaemia). Nature of the assay: Proliferative assay against tumour cell line P3888D1 in vitro. Particulars: read-out: Activity (% Growth Inhibition). Here is the method: as §1
For assay [5], the system named is DLD-1 (Human colon adenocarcinoma). Briefly: Proliferative assay against tumour cell line DLD-1 in vitro. To be noted: read-out: Activity (% Growth Inhibition). Here is the method: as §1
The test system of assay [6] is A549 (Human lung carcinoma). Nature of the assay: Proliferative assay against tumour cell line A549 in vitro. Particulars: read-out: Activity (% Growth Inhibition). Here is the method: as §1
The subject of the next assay is HT1080SCC2. Briefly: Activity against human fibrosarcoma cells in vitro, HT1080SCC2. Here is the method: (§2) Activity Against Human Fibrosarcoma Cells In Vitro The activities of the test compound and of a soluble carbamate derivative thereof against two cell lines derived from human fibrosarcoma cells were measured.
In a further assay the test system is HT10801C. Briefly: Activity against human fibrosarcoma cells in vitro, HT10801C. Here is the method:
as §2

The subject of another assay is tumour cell lines. Briefly: Activity against tumour cell lines in vitro, all cell lines tested (proliferative assays). To be noted: at 1001 μM concentration (so in the source). Here is the method:
as §1

The test system of assay [7] is two cell lines derived from human fibrosarcoma cells. Briefly: Activity against two cell lines derived from human fibrosarcoma cells in vitro. Particulars: both cell lines. Here is the method:
as §2

For `O=C1C(O)=C(C2CCC(c3ccc(Cl)cc3)CC2)C(=O)c2ccccc21` (stereo not shown) [compound of formula (II), 2-[4-(4-chlorophenyl)cyclohexyl]-3-hydroxy-1,4-naphthoquinone], the “activity against tumour cells” value in assay [1] is given as “exhibits activity against tumour cells”.

For the molecule `O=C1C(O)=C([C@H]2CC[C@H](c3ccc(Cl)cc3)CC2)C(=O)c2ccccc21` [Test Compound, 2-[trans-4-(4-chlorophenyl)cyclohexyl]-3-hydroxy-1,4-naphthoquinone], the inhibition at 100 µM in assay [2] was 93.8%; in [3], 79.4%; in assay [4], 92.3%; in [5], 94.2%; in assay [6] it was 86.6%. The half-inhibitory concentration (IC50) in the assay on HT1080SCC2 turned out to be 11 µM; in the assay with HT10801C, 15 µM. For the same molecule, in the assay with tumour cell lines, the “active against all the cell lines tested” value is “active”. In assay [7], the “activity against human fibrosarcoma cell lines” value is “active”.
